Our source for the IC50 and MIC values is patent US12503452B2 (Curza Global, LLC, priority 2019, dated 2025).

Where only a bound is given, the exact number is not on record here.

The target of assay [1] is Rabbit Reticulocyte Lysate (eukaryotic protein synthesis). The assay is described as follows: Rabbit reticulocyte lysate luciferase assay (inhibition of eukaryotic protein synthesis). The class given is biochemical. As to conditions: class by IC50 or % inhibition @ 1 μM, read-out: Rabbit reticulocyte IC50 (μM/% inhib.). In outline:
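Compounds were tested in 8-point 2-fold dilution series for blocking luciferase synthesis in nuclease-treated rabbit reticulocyte lysate (30° C., 90 minutes). Luminescence read-out, corrected by no-RNA background, was expressed as % inhibition against water-only reactions.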

Assay [2] has as its system E. coli S30 extract (bacterial protein synthesis). The assay is described as follows: E. coli S30 extract coupled transcription-translation luciferase assay (inhibition of bacterial protein synthesis). It counts as biochemical. The following applies: class by IC50 or % inhibition @ 1 μM, read-out: S30 IC50 (μM/% inhib.). In a few lines:
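Luminescent read-out of luciferase made from pBESTluc DNA by E. coli S30 extract after 1 h at 37 °C with compound in an 8-point 2-fold series. Background came from no-DNA reactions. Percent inhibition was calculated against water-only controls.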

A further assay deals with E. faecalis (Ef). The assay is described as follows: Broth microdilution minimum inhibitory concentration (MIC). The class given is cell-based. The following applies: Enterococcus faecalis, E. faecalis; growth medium supplemented with sodium bicarbonate; read-out: Ef + bicarb MIC. In outline: (§1)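 MICs were run in triplicate per CLSI microdilution (modified, 8 dilution steps), inoculating 5×10^4 CFU/well prepared from colonies grown at 35±2° C to 0.5 McFarland. Media: CAMHB alone, with 6.25 or 25 mM final sodium bicarbonate, or with 0–50% heat-inactivated human serum.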
A general note: Dilution methods test growth across graded concentrations, often in twofold steps.

A further assay deals with A. baumannii (Ab). Described as above. It counts as cell-based. As to conditions: Acinetobacter baumannii; A. baumannii; growth medium supplemented with sodium bicarbonate; read-out: Ab + bicarb MIC. In a few lines:
as §1

The subject of the next assay is P. aeruginosa (Pa). Described as above. It counts as cell-based. The following applies: Pseudomonas aeruginosa, P. aeruginosa; growth medium supplemented with sodium bicarbonate; read-out: Pa MIC + bicarb. In outline: as §1
The test system of the next assay is E. coli (Ec). Described as above. The class given is cell-based. As to conditions: Escherichia coli, E. coli; growth medium supplemented with sodium bicarbonate; read-out: E. coli + bicarb MIC. In a few lines: as §1
The subject of the next assay is S. aureus (Sa). The description is as above. The class given is cell-based. As to conditions: Staphylococcus aureus, S. aureus; growth medium supplemented with sodium bicarbonate; read-out: Sa + bicarb MIC. In a few lines:
as §1

In the case of `CC(C)(N)C(=O)N1CCN(C(=O)Nc2ccn(-c3ccc(CN[C@@H]4CC[C@H](N)C4)cc3)c(=O)n2)CC1` [Compound 114], the IC50 in assay [1] was > 1 µM; in assay [2] it was < 0.5 µM. In addition, the MIC (as a rule, the smallest concentration in the dilution series that meets the test's criterion for growth inhibition) in the assay with E. faecalis (Ef) was > 32 µg/mL; with A. baumannii (Ab) it was > 32 µg/mL; in the assay with P. aeruginosa (Pa) it was > 32 µg/mL; in the assay with E. coli (Ec) it was < 8 µg/mL; in the assay with S. aureus (Sa), > 32 µg/mL.
Regarding `CN(Cc1ccc(-n2ccc(NC(=O)N3CCN(C(=O)C(C)(C)N)CC3)nc2=O)cc1)[C@@H]1CC[C@H](N)C1` [Compound 115], the IC50 in assay [1] was > 1 µM; in assay [2], < 0.5 µM. Further, the MIC was 8 to 32 µg/mL in the assay on E. faecalis (Ef); > 32 µg/mL in the assay on A. baumannii (Ab); > 32 µg/mL with P. aeruginosa (Pa); < 8 µg/mL with E. coli (Ec); < 8 µg/mL in the assay on S. aureus (Sa).
On to `CCN(Cc1ccc(-n2ccc(NC(=O)N3CCN(C(=O)C(C)(C)N)CC3)nc2=O)cc1)[C@@H]1CC[C@H](N)C1` [Compound 116], for which the IC50 in assay [1] is > 1 µM; in assay [2] it was < 0.5 µM. The MIC was 8 to 32 µg/mL in the assay on E. faecalis (Ef); > 32 µg/mL in the assay with A. baumannii (Ab); > 32 µg/mL in the assay on P. aeruginosa (Pa); < 8 µg/mL with E. coli (Ec); 8 to 32 µg/mL in the assay on S. aureus (Sa).
On to `CC(C)(N)C(=O)N1CCN(C(=O)Nc2ccn(-c3ccc(CN[C@H]4CC[C@H](N)CC4)cc3)c(=O)n2)CC1` [Compound 117], for which the values for the IC50 in assay [1] and in assay [2] were > 1 µM and < 0.5 µM, respectively. The MIC is < 8 µg/mL in the assay on E. faecalis (Ef); > 32 µg/mL with A. baumannii (Ab); > 32 µg/mL in the assay on P. aeruginosa (Pa); < 8 µg/mL with E. coli (Ec); < 8 µg/mL in the assay with S. aureus (Sa).
For the compound `CN(Cc1ccc(-n2ccc(NC(=O)N3CCN(C(=O)C(C)(C)N)CC3)nc2=O)cc1)[C@H]1CC[C@H](N)CC1` [Compound 118], the figures for the IC50 in assay [1] and in assay [2] were > 1 µM and < 0.5 µM, respectively. Further, the MIC in the assay with E. faecalis (Ef) was < 8 µg/mL; with A. baumannii (Ab), 8 to 32 µg/mL; in the assay with P. aeruginosa (Pa), 8 to 32 µg/mL; in the assay with E. coli (Ec) it was < 8 µg/mL; with S. aureus (Sa) it was < 8 µg/mL.
As for `CCN(Cc1ccc(-n2ccc(NC(=O)N3CCN(C(=O)C(C)(C)N)CC3)nc2=O)cc1)[C@H]1CC[C@H](N)CC1` [Compound 119], the IC50 in assay [1] is > 1 µM; in assay [2], < 0.5 µM. In addition, the MIC in the assay on E. faecalis (Ef), in the assay on A. baumannii (Ab), in the assay on P. aeruginosa (Pa), in the assay on E. coli (Ec) and with S. aureus (Sa) was < 8 µg/mL throughout.
`CC(C)(N)C(=O)N1CCN(C(=O)Nc2ccn(-c3ccc(CN[C@H]4CC[C@@H](N)CC4)cc3)c(=O)n2)CC1` [Compound 120]: the figures for the IC50 in assay [1] and in assay [2] were > 1 µM and < 0.5 µM, respectively. Further, the MIC with E. faecalis (Ef) was 8 to 32 µg/mL; in the assay with A. baumannii (Ab), > 32 µg/mL; with P. aeruginosa (Pa) it was > 32 µg/mL; in the assay with E. coli (Ec), < 8 µg/mL; with S. aureus (Sa), < 8 µg/mL.
For the compound `CN(Cc1ccc(-n2ccc(NC(=O)N3CCN(C(=O)C(C)(C)N)CC3)nc2=O)cc1)[C@H]1CC[C@@H](N)CC1` [Compound 121], the IC50 is > 1 µM in assay [1] and < 0.5 µM in assay [2]. Further, the MIC in the assay with E. faecalis (Ef) was < 8 µg/mL; in the assay with A. baumannii (Ab), > 32 µg/mL; with P. aeruginosa (Pa), > 32 µg/mL; in the assay with E. coli (Ec), < 8 µg/mL; in the assay on S. aureus (Sa), < 8 µg/mL.
On to `CCN(Cc1ccc(-n2ccc(NC(=O)N3CCN(C(=O)C(C)(C)N)CC3)nc2=O)cc1)[C@H]1CC[C@@H](N)CC1` [Compound 122], for which the results for the IC50 in assay [1] and in assay [2] were > 1 µM and < 0.5 µM, respectively. Also, the MIC with E. faecalis (Ef) is < 8 µg/mL; in the assay with A. baumannii (Ab), > 32 µg/mL; in the assay with P. aeruginosa (Pa), > 32 µg/mL; with E. coli (Ec) it was < 8 µg/mL; with S. aureus (Sa), < 8 µg/mL.
Consider `CC(C)(N)C(=O)N1CCN(C(=O)Nc2ccn(-c3ccc(CN[C@H]4CC[C@H](N)C4)cc3)c(=O)n2)CC1` [Compound 123], for which the IC50 in assay [1] was > 1 µM; in assay [2] it was < 0.5 µM. Further, the MIC with E. faecalis (Ef) is > 32 µg/mL; in the assay with A. baumannii (Ab), > 32 µg/mL; with P. aeruginosa (Pa) it was > 32 µg/mL; in the assay with E. coli (Ec) it was < 8 µg/mL; in the assay on S. aureus (Sa), < 8 µg/mL.
`CN(Cc1ccc(-n2ccc(NC(=O)N3CCN(C(=O)C(C)(C)N)CC3)nc2=O)cc1)[C@H]1CC[C@H](N)C1` [Compound 124]: the IC50 in assay [1] was > 1 µM; in assay [2] it was < 0.5 µM. For the same compound, the MIC with E. faecalis (Ef) is < 8 µg/mL; in the assay with A. baumannii (Ab), > 32 µg/mL; in the assay on P. aeruginosa (Pa), > 32 µg/mL; with E. coli (Ec), < 8 µg/mL; with S. aureus (Sa) it was < 8 µg/mL.
As for `CCN(Cc1ccc(-n2ccc(NC(=O)N3CCN(C(=O)C(C)(C)N)CC3)nc2=O)cc1)[C@H]1CC[C@H](N)C1` [Compound 125], the IC50 is > 1 µM in assay [1] and < 0.5 µM in assay [2]. The MIC in the assay on E. faecalis (Ef) was < 8 µg/mL; in the assay with A. baumannii (Ab), > 32 µg/mL; with P. aeruginosa (Pa), > 32 µg/mL; in the assay with E. coli (Ec), < 8 µg/mL; in the assay with S. aureus (Sa), < 8 µg/mL.
In the case of `CC(C)(N)C(=O)N1CCN(C(=O)Nc2ccn(-c3ccc(CNCC4CC(N)C4)cc3)c(=O)n2)CC1` (stereo not drawn) [Compound 126], the IC50 was > 1 µM in assay [1] and < 0.5 µM in assay [2]. Moreover, the MIC in the assay on E. faecalis (Ef) is > 32 µg/mL; with A. baumannii (Ab), > 32 µg/mL; with P. aeruginosa (Pa), > 32 µg/mL; in the assay with E. coli (Ec) it was < 8 µg/mL; in the assay with S. aureus (Sa), 8 to 32 µg/mL.
Regarding `CN(Cc1ccc(-n2ccc(NC(=O)N3CCN(C(=O)C(C)(C)N)CC3)nc2=O)cc1)CC1CC(N)C1` (stereo not drawn) [Compound 127], the IC50 is > 1 µM in assay [1] and < 0.5 µM in assay [2]. The MIC was < 8 µg/mL with E. faecalis (Ef); > 32 µg/mL in the assay on A. baumannii (Ab); > 32 µg/mL in the assay with P. aeruginosa (Pa); < 8 µg/mL with E. coli (Ec); < 8 µg/mL in the assay with S. aureus (Sa).
Turning to `CCN(Cc1ccc(-n2ccc(NC(=O)N3CCN(C(=O)C(C)(C)N)CC3)nc2=O)cc1)CC1CC(N)C1` (stereo not drawn) [Compound 128], the IC50 in assay [1] was > 1 µM; in assay [2] it was < 0.5 µM. The MIC in the assay with E. faecalis (Ef) was < 8 µg/mL; with A. baumannii (Ab), > 32 µg/mL; in the assay with P. aeruginosa (Pa) it was 8 to 32 µg/mL; with E. coli (Ec), < 8 µg/mL; with S. aureus (Sa), < 8 µg/mL.
On to `CC(C)CN(Cc1ccc(-n2ccc(NC(=O)N3CCN(C(=O)C(C)(C)N)CC3)nc2=O)cc1)[C@H]1CC[C@H](N)CC1` [Compound 129], for which the IC50 is > 1 µM in assay [1] and < 0.5 µM in assay [2]. For the same compound, the MIC in the assay on E. faecalis (Ef) is < 8 µg/mL; with A. baumannii (Ab) it was < 8 µg/mL; in the assay on P. aeruginosa (Pa), 8 to 32 µg/mL; in the assay on E. coli (Ec), < 8 µg/mL; in the assay with S. aureus (Sa), < 8 µg/mL.
As to `CC(C)(N)C(=O)N1CCN(C(=O)Nc2ccn(-c3ccc(CN(CC4CC4)[C@H]4CC[C@H](N)CC4)cc3)c(=O)n2)CC1` [Compound 130], the IC50 in assay [1] was > 1 µM; in assay [2], < 0.5 µM. For the same compound, the MIC in the assay on E. faecalis (Ef) was < 8 µg/mL; in the assay with A. baumannii (Ab), 8 to 32 µg/mL; in the assay with P. aeruginosa (Pa), 8 to 32 µg/mL; with E. coli (Ec), < 8 µg/mL; in the assay on S. aureus (Sa), < 8 µg/mL.
As for `CCCN(Cc1ccc(-n2ccc(NC(=O)N3CCN(C(=O)C(C)(C)N)CC3)nc2=O)cc1)[C@H]1CC[C@H](N)CC1` [Compound 131], the IC50 in assay [1] was > 1 µM; in assay [2], < 0.5 µM. Besides, the MIC was < 8 µg/mL in the assay with E. faecalis (Ef); < 8 µg/mL in the assay on A. baumannii (Ab); 8 to 32 µg/mL with P. aeruginosa (Pa); < 8 µg/mL in the assay with E. coli (Ec); < 8 µg/mL in the assay on S. aureus (Sa).
